Laboratory results published in US20220008390A1, “COMPOSITIONS AND METHODS FOR TREATING PAIN AND/OR INFLAMMATION” (Neumentum, Inc., priority 2020, published 2022).

Legend:
rat formalin (1%) model = assay: rat formalin (1%) test; type: in vivo; conditions: 300 mg/kg, oral, 1 hr pretreatment; 1% formalin intraplantar; FIG. 1
Protocol: 5-Methyl-1H-pyrazole-3-carboxylic acid (4-hydroxy-phenyl)-amide (Compound 1) was tested in the rat formalin (1%) model. The rat formalin test is a preclinical model of human painful conditions.
The formalin test in rat (or mice) is a valid and reliable model of nociception (sensation of pain) and is sensitive for various classes of analgesic drugs. Formalin is a solution of formaldehyde in water. The subcutaneous injection of dilute formalin induces pain in humans and nociceptive (presumptive of pain) behaviors in animals. Since it is painful when it is injected in humans, it is used as an animal model that is considered translational to human pain. […]
In the formalin model, pain response scoring is determined by recording the pain-like behaviors per unit of time including licking, flinching, or raising or shaking of the injected paw. […]
For all Groups, animals were acclimated to the observation chamber for about 15 minutes immediately prior to formalin injection. All animals received an intraplantar subcutaneous injection of 50 μL of 1% formalin into the left hind paw and were then be placed in the observation chamber immediately and formalin-evoked spontaneous nociceptive behaviors in the rats was continuously recorded for 0-60 min using a commercial camcorder. […]

[1] = test system: carrageenan-induced paw-edema; assay: rat carrageenan-induced paw-edema model; type: in vivo
Protocol: 5-Methyl-1H-pyrazole-3-carboxylic acid (4-hydroxy-phenyl)-amide (Compound 1) was tested in the rat carrageenan paw-edema model. The rat carrageenan model is a preclinical model of inflammation and anti-inflammatory efficacy. Generally, animals are injected with carrageenan in one hind footpad, usually, half an hour or an hour after they are treated with the test compound while the other footpad is injected with saline as a control. The measurement of paw volume/thickness is then performed at specified time points. The objective of this study was to evaluate the effect of 5-Methyl-1H-pyrazole-3-carboxylic acid (4-hydroxy-phenyl)-amide (Compound 1) on paw edema in rat induced by intra-plantar injection of i-Carrageenan into the left hind paw. [table] On Day 1, carrageenan (1%; 100 uL) was injected subcutaneously into the plantar aspect of the left hindpaw of rats from all groups. Carrageenan injection was performed in conscious rats by restraining with hand and injection was done in the middle of the plantar surface area. The carrageenan solution was vortexed/stirred before each injection. • Route of Administration Oral gavage (PO) • Dosing Regimen: Single dose on Day 1, 1 h before Carrageenan injection. • Method: The day of dosing was designated as Day 1. The animals were not sedated. The volume for each dose was administered over one injection based on the body weight. Paw volume (left hind paw) was measured before carrageenan injection (baseline) and then at 1, 3, 6 and 8 hours (+/−2 minutes) after carrageenan injection (on Day 1). Measurements will be done using a digital plethysmometer as below: In brief, the Plethysmometer is a volume meter, designed for accurate measurements of inflammation-induced swelling. It consists of a water filled cell into which the paw along with the ankle joint is dipped. A transducer records the differences in water level caused by volume displacement and provides LCD readout of the exact volume gain due to swelling. Limb volumes were recorded onto a data sheet as they were measured. One trial per animal were recorded for each time point. […]

[2] = test system: moderate to severe pain after third molar extractions; assay: single-dose clinical study, pain after third molar extractions (pain intensity difference); type: in vivo, human; conditions: 1000 mg single dose, up to 24 hours post-dose; FIG. 3
Protocol: A single-center, randomized, double-blind, placebo- and active-controlled, parallel group study was performed to evaluate the efficacy, safety and pharmacokinetic profile of a single dose of 5-Methyl-1H-pyrazole-3-carboxylic acid (4-hydroxy-phenyl)-amide (Compound 1), over a 24-hour on-site period in moderate to severe pain after third molar extractions in up to 280 male subjects was performed. Healthy male subjects, ages 18 to 45 years, were screened by medical history, vital signs, electrocardiogram (ECG), and clinical laboratory tests. Eligible subjects returned to the clinic on the day of surgery and completed baseline vital signs and clinical laboratory tests. The subjects were randomized such that one group received placebo (Group 1), one group received 1000 mg of Compound 1 (Group 2), and one group received 1000 mg acetaminophen (Group 3). All Groups received the treatment dose within up to 4.5 hours after oral surgery (third molar extraction). Pain intensity/pain relief assessments were collected at 0.25, 0.5, 0.75, 1, 1.5, 2, hourly up to 12, 16, and 24 hours post-dose and at time of first rescue medication (oral ibuprofen). […] This unexpected result makes the compounds of the present invention suitable for chronic pain and/or inflammatory indications as disclosed herein.

[3] = pharmacokinetic profile in third molar extraction study; type: in vivo; conditions: human; plasma, 1000 mg single dose, male subjects
Protocol: A single-center, randomized, double-blind, placebo- and active-controlled, parallel group study was performed to evaluate the efficacy, safety and pharmacokinetic profile of a single dose of 5-Methyl-1H-pyrazole-3-carboxylic acid (4-hydroxy-phenyl)-amide (Compound 1), over a 24-hour on-site period in moderate to severe pain after third molar extractions in up to 280 male subjects was performed.
The subjects were randomized such that one group received placebo (Group 1), one group received 1000 mg of Compound 1 (Group 2), and one group received 1000 mg acetaminophen (Group 3). All Groups received the treatment dose within up to 4.5 hours after oral surgery (third molar extraction).
Pain intensity/pain relief assessments were collected at 0.25, 0.5, 0.75, 1, 1.5, 2, hourly up to 12, 16, and 24 hours post-dose and at time of first rescue medication (oral ibuprofen). […] This unexpected result makes the compounds of the present invention suitable for chronic pain and/or inflammatory indications as disclosed herein.

[4] = test system: mechanical allodynia after severe spinal cord contusion injury; assay: mechanical allodynia after severe spinal cord contusion injury (von Frey, Up-Down); type: in vivo, rat; conditions: 10 mg/kg/day by gavage for 7 days; day 28 post surgery
Protocol: 5-Methyl-1H-pyrazole-3-carboxylic acid (4-hydroxy-phenyl)-amide (Compound 1) treatment is tested in the suppression of the development of mechanical allodynia after severe spinal cord contusion injury in the rat. Thirteen week-old female Lewis rats (Charles River, Sulzfeld Germany) are housed under a 12:12 h dark/light regime and allowed free access to water and food. After one week of habituation the animals undergo general anesthesia with a mixture of isoflurane and air (induction: 5% isoflurane, maintenance: 2.2% isofluorane). […] The following groups were used: • Group I: SCI model+vehicle (1.5% Carboxymethylcellulose (CMC) in sterile water) by gavage for seven days • Group 2: SCI model+Compound 1 (10 mg/kg/day) in vehicle by gavage for 7 days The mechanical sensitivity response is measured as the direct pressure stimulus required for eliciting foot withdrawal in nonrestrained conditions. […] The 50% threshold force needed for paw withdrawal is calculated for both hind paws of each rat and the mean value of both hind paws is used to represent the mechanical sensitivity of this animal. The mechanical sensitivity (indicated by the 50% threshold force for paw withdrawals) is determined by the Up-Down method using von Frey filaments. […]

neuropathic pain = assay: 12 week study in subjects with neuropathic pain; type: in vivo, human; conditions: arms including 1000 and 2000 mg/day
Text: Subjects are diagnosed with neuropathic pain (chronic and ongoing for more than 3 months in contrast to an acute injury of nerve or nervous system).
In case of low back pain (mixed pain) a possible, probable or definite neuropathic pain component can be diagnosed via screening tools at screening/baseline visits, e.g. PAIN DETECT, LANSS, DN-4).
A 12 week study is designed to compare 5-Methyl-1H-pyrazole-3-carboxylic acid (4-hydroxy-phenyl)-amide (Compound 1) to placebo and to a standard (pregabalin).
There are 2-3 dosing arms for Compound 1 (including 1000 and 2000 mg/day).

With `Cc1cc(C(=O)Nc2ccc(O)cc2)n[nH]1` [Compound 1, 5-Methyl-1H-pyrazole-3-carboxylic acid (4-hydroxy-phenyl)-amide] the “nociceptive behaviors in Phase II of the rat formalin test” value (rat formalin (1%) model) was “inhibited nociceptive behaviors”, the “carrageenan-induced paw-edema (paw volume)” value ([1]; 300 mg/kg and 600 mg/kg, orally, single dose 1 h before carrageenan, FIG. 2A) was “dose-relatedly inhibited carrageenan-induced paw-edema” and the “AUC of paw volume data, 300 mg/kg dose compared to 600 mg/kg dose” value ([1]; FIG. 2B) was “statistically significant difference”. The “duration of the effect of a single oral dose” value ([1]; single oral dose, paw-edema inhibition) was greater than 8 h, the “Pain intensity difference from baseline (PID) score compared with 1000 mg acetaminophen” value [2] was “significantly greater and longer lasting PID score” and the half-life [3] was roughly 10 h. The “mechanical hypersensitivity (50% threshold force for paw withdrawal)” value [4] was “mechanical hypersensitivity is reduced” and the “pain intensity and signs and symptoms of neuropathy/hyperexcitability vs. placebo and standard (pregabalin)” value (neuropathic pain) was “shows improvement vs. placebo and improvement or comparable effects vs. standard”.
